Read-outs that look alike come from different tables or passages of the source.
How the values were obtained:
CCI-exposed mice [1] = assay: CCI neuropathic pain model, all behavioural tests and observation; type: in vivo, mouse
Experimental: (§1) The effects of a single intraperitoneal (i.p.) injection of AR71 at doses of 5, 10, and 20 mg/kg on mechanical (von Frey test) and thermal (cold plate and tail flick tests) stimulus were evaluated on day 14 following sciatic nerve injury (Figure 15). There were seven to eight animals per group. All these tests were performed in three time series after the administration of the compound. In the case of the von Frey test—after 30, 90, and 180 min; the cold plate test—after 35, 95, and 185 min; and the tail flick test—after 40, 100, and 190 min.
(§2) The mice were randomly divided into four experimental groups. One group received a vehicle treatment (10% DMSO/10%(2-Hydroxypropyl)-β-cyclodextrin/water for injection, i.p.), while the other three groups were administered with AR71 at doses of 5, 10, or 20 mg/kg of body weight (b.w.), i.p. Baseline measurements for all tests were conducted before the compounds were injected, and the results are presented as percentages of the maximal possible effect (% MPE). […] All data from behavioural tests were analysed using a one-way ANOVA with Bonferroni’s multiple comparison post hoc test.
Assessment of the analgesic activity of AR71 was performed using a mouse experimental model of chronic constriction injury of the sciatic nerve, by three tests including the von Frey test, the cold plate test, and the tail flick test. […]

[2] = test system: human peripheral blood mononuclear cells (PBMCs); assay: PBMC viability (resazurin reduction assay); type: cell-based; conditions: for IC50: Homo sapiens, PBMC, read-out: IC50 PBM Cells
Experimental: PBMCs were isolated from a leucocyte-buffy coat collected from the blood of healthy non-smoking donors from the Blood Bank in Lodz, Poland. They included lymphocytes, monocytes, and other white blood cells with a round nucleus. A portion of the leucocyte-buffy coat was diluted in 1% phosphate buffer saline (PBS). Then, it was centrifuged in a density gradient of Lymphosep (Cytogen, Zgierz, Poland) at 200× g for 20 min at room temperature. Next, the cells were collected and washed thrice in 1% PBS. The supernatant was poured off, and the pellet of the cells was resuspended in RPMI 1640 medium (Lonza, Basel, Switzerland). The study protocol was approved by the Committee for Research on Human Subjects of the University of Lodz, Poland (17/KBBN-UŁ/III/2019).
The resazurin reduction assay was performed similarly to that previously described by O’Brien et al.. Resazurin salt powder was dissolved in sterile PBS. The cells were seeded on 96-well plates in 5 × 10^4 for PBMCs per well. AR71 was added to the wells to achieve final concentrations of 0.78, 1.56, 3.125, 6.25, 12.5, 25, 50, and 100 µM. In the next step, the plates were incubated at 37 °C in 5% CO2 for 2 h, 24 h, 48 h, and 72 h. Then, 10 µL of resazurin salt was added to each well, and the plates were incubated again at 37 °C in 5% CO2 for 2 h. Next, fluorescence was measured with microplate reader BioTek Synergy HT (Agilent Technologies, Inc., Santa Clara, CA, USA) using an excitation wavelength of 530/25 nm and an emission wavelength of 590/35 nm.
The viability of PBMCs was estimated after 2, 24, 48, and 72 h of incubation with AR71. The viability of individual samples was calculated relative to the negative control (NC, untreated cells), which was taken as 100%. The positive control was PBMCs incubated with 0.1% DMSO (vehicle, Veh). The results represented the means with SEMs of six independent experiments and were expressed as a percentage of untreated control cells. The values were plotted against all used concentrations of AR71 to calculate the viability inhibition concentration at 50% (IC50) using GraphPad Prism 6.07 (GraphPad Software, Inc., San Diego, CA, USA).

human H3R = target: human H3R; set-up: method as in PMID 36370200; conditions: cited from earlier work
CCI-exposed mice [3] = assay: von Frey test in CCI neuropathic pain model; type: in vivo, mouse
Experimental: as §1, §2
The model of chronic constriction injury (CCI) to the sciatic nerve was established according to Bennett and Xie. The surgical method was performed under isoflurate anaesthesia (2% isoflurane in 100% oxygen with a flow of 1.5 L/min). Below the right hipbone, a small incision was performed, and three ligatures (4/0 silk) around the sciatic nerve were made (with 1 mm spacing) until a brief twitch in the respective hind limb was observed. The CCI procedure leads to hypersensitivity to mechanical and thermal stimuli. Behavioural tests were performed on day 14 after the injury. AR71 was dissolved in 10% DMSO/10% (2-Hydroxypropyl)-β-cyclodextrin/water for injection and was given i.p. at doses of 5, 10, and 20 mg/kg of body weight (injection volume 10 mL/kg of bw). The control group received the vehicle (10% DMSO/10% (2-Hydroxypropyl)-β-cyclodextrin/water for injection).
Behavioural experiments were performed between 8:00 a.m. and 2:00 p.m. […]

Q: Which “sedative, locomotor or gastrointestinal effects” value (CCI-exposed mice [1]; 5, 10, 20 mg/kg i.p.) does the source give for `COc1cc(/C=C/C(=O)c2ccc(OCCCN3CCCCC3)cc2)cc(OC)c1OC` [AR71, (E)-3-(3,4,5-trimethoxyphenyl)-1-(4-(3-(piperidin-1-yl)propoxy)phenyl)prop-2-en-1-one] here?
A: Its value is “no sedative, locomotor, or gastrointestinal effects”.

Q: What about the “dose with the highest analgesic effects” value (CCI-exposed mice [1]; single i.p. injection, doses 5, 10, 20 mg/kg, day 14 after CCI) of the same compound?
A: The value was 20 mg/kg.

Q: What about the “decrease in the number of PBMCs” value ([2]; 100 µM, regardless of incubation time (2-72 h)) of the same compound?
A: The value was 80–98%.

Q: What about the “cytotoxic effect on PBMCs” value ([2]; 0.78, 1.56 and 3.125 µM, 2 h) of the same compound?
A: Its value is “did not cause a cytotoxic effect”.

Q: What about the “decrease in the number of PBMCs” value ([2]; 6.25–50 µM, 2 h) of the same compound?
A: The value was at most 20%.

Q: What about the IC50 ([2]; 2 h incubation) of the same compound?
A: The IC50 was 71 µM.

Q: What about the IC50 ([2]; 24 h incubation) of the same compound?
A: Its IC50 is 21 µM.

Q: And the IC50 ([2]; 48 h incubation)?
A: Its IC50 is 7.48 µM.

Q: What about the IC50 ([2]; 72 h incubation) of the same compound?
A: The IC50 was 4.53 µM.

Q: What about the Ki (human H3R) of the same compound?
A: The Ki was 0.024 µM.

Q: What about the “effect in von Frey test vs vehicle” value (CCI-exposed mice [3]; 10 mg/kg i.p., 30 min after injection, p < 0.05) of the same compound?
A: Its value is “significant pain-relieving effects”.

Q: And the “effect in von Frey test vs vehicle” value (CCI-exposed mice [3]; 20 mg/kg i.p., 90 and 180 min after injection (p < 0.001 and p < 0.01), lower doses not effective)?
A: Its value is “increased withdrawal thresholds”.

Q: And the “effect in von Frey test vs vehicle” value (CCI-exposed mice [3]; 20 mg/kg i.p., 30 min after injection, p < 0.001)?
A: The value was “significant pain-relieving effects”.

Source: PMC11311998, “AR71, Histamine H3 Receptor Ligand—In Vitro and In Vivo Evaluation (Anti-Inflammatory Activity, Metabolic Stability, Toxicity, and Analgesic Action)” (International Journal of Molecular Sciences, 2024)
